For nine compounds, Ki results are on record in patent US12617797B2, “Substituted pyrazolo [1,5-a]pyrimidines having multimodal activity against pain” (ESTEVE PHARMACEUTICALS, S.A., priority 2020, dated 2026).

The target of assay [1] is Human α2δ-1 subunit of Cav2.2 calcium channel (Homo sapiens, UniProt P54289). Nature of the assay: Human α2δ-1 subunit of Cav2.2 calcium channel assay ([3H]-gabapentin binding). The settings on record: binding to the α2δ-1 subunit of voltage-gated calcium channels expressed as Ki; + also covers inhibition between 1% and 50%. Summed up:
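Displacement of 15 nM [3H]-gabapentin from human α2δ-1-enriched membranes (Hepes-KOH 10 mM, pH 7.4; 27 °C, 60 min) read by filter binding and radioactivity counting. Values are single-point % inhibition (1 or 10 μM) or five-point Ki; 10 μM pregabalin sets NSB.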

For another assay, the target named is T1, Human σ1 receptor (Homo sapiens, UniProt Q99720).
T1 construct: expressed in transfected cells; host or cells: HEK-293
Nature of the assay: Human σ1 receptor radioligand assay ([3H](+)-pentazocine binding, transfected HEK-293 membranes). The settings on record: binding to σ1 receptor expressed as Ki; + also covers inhibition between 1% and 50%; read-out: σ-1 binding. A digest of the protocol:
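Ki was derived from five test concentrations, or % inhibition was measured at a single 1 or 10 μM dose, against 5 nM [3H](+)-pentazocine. Incubation was 120 min at 37° C in 50 mM Tris-HCl pH 8 with 7 μg HEK-293 membranes, and 10 μM haloperidol set non-specific binding. Bound radioactivity was counted after filtration.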

Structures are written as SMILES.

T1 sequence (Q99720 whole entry): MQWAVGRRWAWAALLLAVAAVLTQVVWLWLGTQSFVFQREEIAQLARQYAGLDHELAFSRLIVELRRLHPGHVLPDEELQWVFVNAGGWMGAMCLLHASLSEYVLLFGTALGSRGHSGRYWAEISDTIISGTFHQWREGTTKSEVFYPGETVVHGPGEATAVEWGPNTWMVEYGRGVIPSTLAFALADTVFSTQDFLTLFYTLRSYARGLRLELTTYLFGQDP
Human α2δ-1 subunit of Cav2.2 calcium channel, sequence (P54289 25-1103): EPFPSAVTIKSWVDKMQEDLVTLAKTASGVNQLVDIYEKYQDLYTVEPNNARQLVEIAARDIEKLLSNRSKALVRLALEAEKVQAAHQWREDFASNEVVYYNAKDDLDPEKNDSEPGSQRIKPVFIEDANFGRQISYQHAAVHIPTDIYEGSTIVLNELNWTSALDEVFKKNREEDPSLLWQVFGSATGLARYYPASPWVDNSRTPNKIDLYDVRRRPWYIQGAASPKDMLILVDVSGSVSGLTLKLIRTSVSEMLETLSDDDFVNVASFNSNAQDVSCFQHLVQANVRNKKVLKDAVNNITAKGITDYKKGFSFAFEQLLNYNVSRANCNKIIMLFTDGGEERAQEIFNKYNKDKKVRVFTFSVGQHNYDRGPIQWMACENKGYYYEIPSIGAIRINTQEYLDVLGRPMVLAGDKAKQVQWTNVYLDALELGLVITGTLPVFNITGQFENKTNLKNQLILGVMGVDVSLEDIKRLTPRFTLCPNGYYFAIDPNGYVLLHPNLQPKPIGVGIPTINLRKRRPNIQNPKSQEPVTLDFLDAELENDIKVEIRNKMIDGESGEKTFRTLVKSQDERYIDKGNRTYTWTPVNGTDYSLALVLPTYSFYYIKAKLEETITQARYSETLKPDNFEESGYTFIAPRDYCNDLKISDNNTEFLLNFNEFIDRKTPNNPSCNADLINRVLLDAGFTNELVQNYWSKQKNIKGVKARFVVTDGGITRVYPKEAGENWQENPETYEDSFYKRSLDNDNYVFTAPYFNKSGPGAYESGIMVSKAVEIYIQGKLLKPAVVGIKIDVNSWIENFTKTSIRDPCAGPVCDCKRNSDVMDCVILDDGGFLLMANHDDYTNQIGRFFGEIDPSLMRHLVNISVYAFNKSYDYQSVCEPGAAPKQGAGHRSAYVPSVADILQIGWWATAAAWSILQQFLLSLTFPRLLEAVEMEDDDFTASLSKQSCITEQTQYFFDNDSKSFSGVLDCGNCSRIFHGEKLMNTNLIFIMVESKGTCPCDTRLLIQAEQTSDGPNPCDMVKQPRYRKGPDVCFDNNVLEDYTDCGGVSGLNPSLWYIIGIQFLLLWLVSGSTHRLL

As to `Cc1nn2c(C3CCCN(Cc4ccc(Cl)cc4)C3)ccnc2c1CNCc1ccc(F)cc1` (stereo not drawn) [Example 146, 1-(7-(1-(4-Chlorobenzyl)piperidin-3-yl)-2-methylpyrazolo[1,5-a]pyrimidin-3-yl)-N-(4-fluorobenzyl)methanamine], the Ki is 500 to 5000 nM in assay [1] and less than 500 nM on Human σ1 receptor.
Regarding `Cc1nn2c(C3CCCN(Cc4ccc(Cl)cc4)C3)ccnc2c1CN` (stereo not drawn) [Example 219, (7-(1-(4-Chlorobenzyl)piperidin-3-yl)-2-methylpyrazolo[1,5-a]pyrimidin-3-yl)methanamine], the Ki in assay [1] is 500 to 5000 nM; at Human σ1 receptor, 500 to 1000 nM.
For `Cc1cnc2c(Br)c(C)nn2c1C1CCCN(Cc2ccccc2)C1` (stereo not drawn) [Example 6, 7-(1-Benzylpiperidin-3-yl)-3-bromo-2,6-dimethylpyrazolo[1,5-a]pyrimidine], the Ki in assay [1] is 500 to 5000 nM; on Human σ1 receptor, more than 1000 nM.
The corresponding values for `Cc1cc(C2CCCN(Cc3ccc(Cl)cc3)C2)n2nc(C)c(CNCC3CCOCC3)c2n1` (stereo not drawn) [Example 238, 1-(7-(1-(4-Chlorobenzyl)piperidin-3-yl)-2,5-dimethylpyrazolo[1,5-a]pyrimidin-3-yl)-N-((tetrahydro-2H-pyran-4-yl)methyl)methanamine] are 500 to 5000 nM and less than 500 nM.
On to `CC(=O)Nc1c(C)nn2c(C3CCCN(Cc4ccccc4)C3)ccnc12` (stereo not drawn) [Example 8, N-(7-(1-Benzylpiperidin-3-yl)-2-methylpyrazolo[1,5-a]pyrimidin-3-yl)acetamide], for which the Ki in assay [1] was more than 5000 nM; on Human σ1 receptor, more than 1000 nM.
The corresponding values for `CCc1nn2c(C3CCCN(Cc4ccccc4)C3)ccnc2c1Br` (stereo not drawn) [Example 11, 7-(1-Benzylpiperidin-3-yl)-3-bromo-2-ethylpyrazolo[1,5-a]pyrimidine] are 500 to 5000 nM and less than 500 nM.
Turning to `COCC1CCN(Cc2c(C)nn3c(C4CCCN(Cc5ccc(Cl)cc5)C4)ccnc23)CC1` (stereo not drawn) [Example 170, 7-(1-(4-Chlorobenzyl)piperidin-3-yl)-3-((4-(methoxymethyl)piperidin-1-yl)methyl)-2-methylpyrazolo[1,5-a]pyrimidine], the Ki (in assay [1]; at Human σ1 receptor) was less than 500 nM each time.
As for `Cc1cnc2c(-c3ccncc3)cnn2c1C1CCCN(CCc2ccccc2)C1` (stereo not drawn) [Example 73, 6-Methyl-7-(1-phenethylpiperidin-3-yl)-3-(pyridin-4-yl)pyrazolo[1,5-a]pyrimidine], the Ki is more than 5000 nM in assay [1] and less than 500 nM on Human σ1 receptor.
The corresponding values for `COc1cnccc1-c1cc2nccc(C3CCCN(Cc4ccccc4)C3)n2n1` (stereo not drawn) [Example 33, 7-(1-Benzylpiperidin-3-yl)-2-(3-methoxypyridin-4-yl)pyrazolo[1,5-a]pyrimidine] are 500 to 5000 nM and more than 1000 nM.
